Laboratory results reported in patent publication US20110039762A1, “TARGETED ANTIMICROBIAL MOIETIES” (C3 JIAN, INC., priority 2009, published 2011).
Entries after “also recorded” stand apart in the source; their conditions may differ.

How the values were obtained:
M. luteus = assay: Kill or inhibit growth/proliferation; morphology, biofilm and growth disruption (Tables 5, 6); assay type: cell-based, Micrococcus luteus; parameters: key: A: Peptide aggregates; B: Less hyphal formation; Clumps; Diffuse clumps and small polyps; F: Diffuse growth; H: Thin; I: Growth inhibition; Microcolony formation; Rippled; Small polyps; Thick; W: Halo formation on top, microlonies on bottom; also: test concentration or dose not given here
[1] = system: microorganisms (e.g., bacteria, yeasts, fungi); assay: Targeting peptide binding to target microorganisms (Table 3); conditions: microorganism the targeting peptide binds; binding in aqueous buffers varied by peptide solubility, preferably 1x PBS
MRSA = assay: Kill or inhibit growth/proliferation; morphology, biofilm and growth disruption (Tables 5, 6); assay type: cell-based, Methicillin-resistant Staphylococcus aureus; parameters: key: A: Peptide aggregates; B: Less hyphal formation; Clumps; Diffuse clumps and small polyps; F: Diffuse growth; H: Thin; I: Growth inhibition; Microcolony formation; Rippled; Small polyps; Thick; W: Halo formation on top, microlonies on bottom; also: test concentration or dose not given here
C. jeikeium = assay: as above; assay type: cell-based, Corynebacterium jeikeium; parameters: key: A: Peptide aggregates; B: Less hyphal formation; Clumps; Diffuse clumps and small polyps; F: Diffuse growth; H: Thin; I: Growth inhibition; Microcolony formation; Rippled; Small polyps; Thick; W: Halo formation on top, microlonies on bottom
S. epidermidis = assay: as above; assay type: cell-based, Staphylococcus epidermidis; parameters: key: A: Peptide aggregates; B: Less hyphal formation; Clumps; Diffuse clumps and small polyps; F: Diffuse growth; H: Thin; I: Growth inhibition; Microcolony formation; Rippled; Small polyps; Thick; W: Halo formation on top, microlonies on bottom
microorganisms = assay: Peptides having multiple activities (targeting/binding, antimicrobial, growth or phenotype altering)
Source text: In certain embodiments, peptides described herein can have multiple activities. Thus for example, a peptide can have both binding/targeting activity and antimicrobial activity. Such peptides can be used, e.g., in a chimeric construct, for any or all of these properties. Thus, for example, a peptide designated “B” in Table 8 can be used as a targeting peptide. If it is also designated G or M it can also be used for antimicrobial activity.
For Organism, effect in this document: test concentration or dose not given here.

| Substance | Organism, effect (M. luteus) | Target(s) [1] | Organism, effect (MRSA) | Organism, effect (C. jeikeium) | Organism, effect (S. epidermidis) | Activities (microorganisms) |
| --- | --- | --- | --- | --- | --- | --- |
| LIQKGLNQTFIVVIRLNNFIKKS [PF-013] | M. luteus (D) | M. luteus and P. mirabilis and E. coli and P. aeruginosa and MRSA and S. pneumoniae and C. jeikeium and C. jejuni | MRSA (R) | C. jeikeium (D) | S. epidermidis (C) | G B |
| PF-003: peptide having multiple activities (chain 1 MNNWIKVAQISVTVINEVIDIMKEKQNGGK; chain 2 MNNWIKVAQISVTVINEVIDIMKEKQNGGK; Peptide with targeting and/or antimicrobial activity) | M. luteus (A) | S. epidermidis and M. luteus and P. mirabilis and C. albicans and MRSA and C. jeikeium | MRSA (R) | C. jeikeium (A) | S. epidermidis (D) | G B |
| PF-010: peptide having multiple activities (chain 1 MDIDVNKLLQAFVYFKSFEKLRHNNS; chain 2 MDIDVNKLLQAFVYFKSFEKLRHNNS; Peptide with targeting and/or antimicrobial activity) | M. luteus (A) | S. epidermidis; also recorded: M. luteus; also recorded: E. coli; also recorded: C. albicans | MRSA (R) | C. jeikeium (A) | S. epidermidis (S) | G B |
| PF-012: peptide having multiple activities (chain 1 WRGPNTEAGGKSANNIVQVGGAPT; chain 2 WRGPNTEAGGKSANNIVQVGGAPT; Peptide with targeting and/or antimicrobial activity) | M. luteus (C) | – | MRSA (R) | C. jeikeium (A) | S. epidermidis (S) | G B |
| PF-022: peptide having multiple activities (chain 1 MINELKNKNSGIMNNYVVTKESKL; chain 2 MINELKNKNSGIMNNYVVTKESKL; Peptide with targeting and/or antimicrobial activity) | M. luteus (A) | – | MRSA (R) | C. jeikeium (A) | S. epidermidis (D) | G B |
| PF-030: peptide having multiple activities (chain 1 MTCHQAPTTTHQSNMA; chain 2 MTCHQAPTTTHQSNMA; Peptide with targeting and/or antimicrobial activity) | M. luteus (C) | – | MRSA (R) | C. jeikeium (C) | S. epidermidis (D) | G B |
| PF-042: peptide having multiple activities (chain 1 LLLSYFRYTGALLQSLF; chain 2 LLLSYFRYTGALLQSLF; Peptide with targeting and/or antimicrobial activity) | M. luteus (C) | – | MRSA (R) | C. jeikeium (S) | S. epidermidis (D) | G B |
| PF-076: peptide having multiple activities (LYQYELLSKEEYLKCTLIINQRRNEQK; Peptide with targeting and/or antimicrobial activity) | M. luteus (A) | – | MRSA (R) | C. jeikeium (A) | S. epidermidis (S) | G B |
